Measured values reported in patent publication US9873719B2, “Salt and protease-resistance of antimicrobial peptide and the manufacture thereof” (priority 2013, dated 2018).
Square brackets hold non-standard residues; d marks the D form. Peptide text beside a SMILES is read from it. 2Nal = N[C@@H](Cc1ccc2ccccc2c1)C(=O)O

Columns and labels:
[1] = tested on: Eschericha coli (ATCC 25922), Staphylococcus aureus (ATCC 25923, 29213, and 19636), and Pseudomonas aeruginosa (ATCC 27853 and 9027); experiment: Salt resistance test: antibacterial activity assay (NCCLS microdilution, MIC90); assay type: cell-based; details: for antimicrobial activity compared with reference peptide (S1 or S2-Nal): MHB medium or the high-salt condition, comparison in words; for antimicrobial activity: at MHB medium or the high-salt condition, FIG. 1a/1b; for antimicrobial activity at 300 mM NaCl: FIG. 1b
Excerpt: Antibacterial activity assay was used to determine the antimicrobial activity of S1, Nal-S1, S1-Nal-Nal, S1-Nal-Nal-Nal, S1-W, S1-W-W, S1-K-K-K, S2-Nal, S2-F-Nal, S2-Nal-Nal at different salt concentration. Eschericha coli (ATCC 25922), Staphylococcus aureus (ATCC 25923, 29213, and 19636), and Pseudomonas aeruginosa (ATCC 27853 and 9027) were used in the Example.
Microdilution method of National Committee for Clinical Laboratory Standards (NCCLS) was used to determine the minimal inhibition concentration (MIC). The MIC as used herein is a minimum inhibitory concentration required to inhibit the growth of 90% of organisms (MIC90).
In the Microdilution method, 1 μl of peptide solution (5,000 μg/ml to 78.1 μg/ml) and 99 μl of bacteria suspension were mixed and added into 96 wells plates. After 16 hours of incubation at 37° C., the optical density (O.D.) value at 600 nm was detected by ELISA (Thermo Max, Molecular Devices, Sunnyvale, Calif.). The Muller-Hinton Broth (MHB) medium without peptide and bacterial suspension were used as negative control and positive control, separately. The MIC value means a minimum inhibitory concentration required to inhibit the growth (equal or more than 90%) of bacteria.

in vitro = in vitro ADME, bovine
Method: Serum stability of the peptides was determined in 25% (v/v) aqueous bovine calf serum (HyClone, cat. AUE-34962). Firstly, peptides were dissolved in serum at a concentration of 150 μg/mL and incubated at 37° C. After 45 min on ice for precipitating serum proteins, the serum was centrifuged at 12,000 g for 10 min at 4° C., and then the supernatants were lyophilized. Remaining amount of the peptides was determined by RP-HPLC.

[2] = tested on: human red blood cells (hRBCs)
Method: The hemolysis of peptides was determined by evaluating the effect of peptides on human red blood cells (hRBCs). hRBCs were obtained by washing the heparinized blood with PBS buffer three times, and stored at physiological saline with 10% phosphate buffer. The peptides were dissolved in PBS buffer, and then 50 μl of 10% (v/v) hRBCs was added to the PBS buffer at 37° C. for 1 hour of incubation (the final volume concentration of the hRBCs was 5%). After 1 hour of incubation, the hBRCs were centrifuged, and the hemolysis ratio was determined by detecting the absorbance values at 540 nm using a spectrophotometer. The hemolysis ratio of hRBCs without treatment was defined as 0%, and the hemolysis ratio of hRBCs treated with 1% Triton-X 100 was defined as 100%.

Molecule	antimicrobial activity compared with reference peptide (S1 or S2-Nal) [1]	antimicrobial activity [1]	degree of protection of the peptides from degradation in bovine calf serum (rank order) (in vitro)	remaining at 8 h, 150 μg/mL (in vitro; bovine, serum) [%]	hemolytic activity compared with other peptides [2]	antimicrobial activity at 300 mM NaCl [1]
CC(=O)N[C@@H](CCCCN)C(=O)N[C@@H](CCCCN)C(=O)N[C@@H](Cc1c[nH]c2ccccc12)C(=O)N[C@@H](CCCNC(=N)N)C(=O)N[C@@H](CCCCN)C(=O)N[C@@H](Cc1c[nH]c2ccccc12)C(=O)N[C@@H](CC(C)C)C(=O)N[C@@H](C)C(=O)N[C@@H](CCCCN)C(=O)N[C@@H](CCCCN)C(=O)N[C@@H](Cc1ccc2ccccc2c1)C(=O)N[C@@H](Cc1ccc2ccccc2c1)C(=O)N[C@@H](Cc1ccc2ccccc2c1)C(N)=O [S1-Nal-Nal-Nal, KKWRKWLAKK-Nal-Nal-Nal] (Ac-KKWRKWLAKK[2Nal][2Nal][2Nal]-NH2; C-terminus assumed)	better than S1	still retained the antimicrobial activities	S1-Nal-Nal-Nal>S2-Nal-Nal=S2-Nal>S1-Nal-Nal>S1-Nal>S2-F-Nal>S1-KKK>S1>Nal-S1=S1-W>S1-WW	~100	higher hemolytic activity than other peptides	
CC(=O)N[C@@H](CCCCN)C(=O)N[C@@H](Cc1c[nH]c2ccccc12)C(=O)N[C@@H](Cc1c[nH]c2ccccc12)C(=O)N[C@@H](CCCCN)C(=O)N[C@@H](Cc1ccc2ccccc2c1)C(=O)N[C@@H](Cc1ccc2ccccc2c1)C(N)=O [Peptide S2-Nal-Nal, KWWK-Nal-Nal] (Ac-KWWK[2Nal][2Nal]-NH2; C-terminus assumed)	higher than that of S2-Nal	diminished	S1-Nal-Nal-Nal>S2-Nal-Nal=S2-Nal>S1-Nal-Nal>S1-Nal>S2-F-Nal>S1-KKK>S1>Nal-S1=S1-W>S1-WW			still retained their antimicrobial activities
CC(=O)N[C@@H](CCCCN)C(=O)N[C@@H](CCCCN)C(=O)N[C@@H](Cc1c[nH]c2ccccc12)C(=O)N[C@@H](CCCNC(=N)N)C(=O)N[C@@H](CCCCN)C(=O)N[C@@H](Cc1c[nH]c2ccccc12)C(=O)N[C@@H](CC(C)C)C(=O)N[C@@H](C)C(=O)N[C@@H](CCCCN)C(=O)N[C@@H](CCCCN)C(=O)N[C@@H](Cc1ccc2ccccc2c1)C(N)=O [Peptide S1-Nal, KKWRKWLAKK-Nal] (Ac-KKWRKWLAKK[2Nal]-NH2; C-terminus assumed)	better than S1		S1-Nal-Nal-Nal>S2-Nal-Nal=S2-Nal>S1-Nal-Nal>S1-Nal>S2-F-Nal>S1-KKK>S1>Nal-S1=S1-W>S1-WW			
Ac-KKWRKWLAKKKKK-NH2 (C-terminus assumed) [Peptide S1-K-K-K, KKWRKWLAKKKKK]		diminished	S1-Nal-Nal-Nal>S2-Nal-Nal=S2-Nal>S1-Nal-Nal>S1-Nal>S2-F-Nal>S1-KKK>S1>Nal-S1=S1-W>S1-WW			
CC(=O)N[C@@H](CCCCN)C(=O)N[C@@H](Cc1c[nH]c2ccccc12)C(=O)N[C@@H](Cc1c[nH]c2ccccc12)C(=O)N[C@@H](CCCCN)C(=O)N[C@@H](Cc1ccccc1)C(=O)N[C@@H](Cc1ccc2ccccc2c1)C(N)=O [Peptide S2-F-Nal, KWWK-F-Nal] (Ac-KWWKF[2Nal]-NH2; C-terminus assumed)	higher than that of S2-Nal	diminished	S1-Nal-Nal-Nal>S2-Nal-Nal=S2-Nal>S1-Nal-Nal>S1-Nal>S2-F-Nal>S1-KKK>S1>Nal-S1=S1-W>S1-WW			still retained their antimicrobial activities
Ac-KKWRKWLAKKW-NH2 (C-terminus assumed) [Peptide S1-W, KKWRKWLAKKW]		diminished	S1-Nal-Nal-Nal>S2-Nal-Nal=S2-Nal>S1-Nal-Nal>S1-Nal>S2-F-Nal>S1-KKK>S1>Nal-S1=S1-W>S1-WW			
CC(=O)N[C@@H](CCCCN)C(=O)N[C@@H](CCCCN)C(=O)N[C@@H](Cc1c[nH]c2ccccc12)C(=O)N[C@@H](CCCNC(=N)N)C(=O)N[C@@H](CCCCN)C(=O)N[C@@H](Cc1c[nH]c2ccccc12)C(=O)N[C@@H](CC(C)C)C(=O)N[C@@H](C)C(=O)N[C@@H](CCCCN)C(=O)N[C@@H](CCCCN)C(=O)N[C@@H](Cc1ccc2ccccc2c1)C(=O)N[C@@H](Cc1ccc2ccccc2c1)C(N)=O [Peptide S1-Nal-Nal, KKWRKWLAKK-Nal-Nal] (Ac-KKWRKWLAKK[2Nal][2Nal]-NH2; C-terminus assumed)	better than S1	still retained the antimicrobial activities	S1-Nal-Nal-Nal>S2-Nal-Nal=S2-Nal>S1-Nal-Nal>S1-Nal>S2-F-Nal>S1-KKK>S1>Nal-S1=S1-W>S1-WW		higher hemolytic activity than other peptides	
Ac-KKWRKWLAKKWW-NH2 (C-terminus assumed) [Peptide S1-W-W, KKWRKWLAKKWW]		diminished	S1-Nal-Nal-Nal>S2-Nal-Nal=S2-Nal>S1-Nal-Nal>S1-Nal>S2-F-Nal>S1-KKK>S1>Nal-S1=S1-W>S1-WW			
CC(=O)N[C@@H](CCCCN)C(=O)N[C@@H](Cc1c[nH]c2ccccc12)C(=O)N[C@@H](Cc1c[nH]c2ccccc12)C(=O)N[C@@H](CCCCN)C(=O)N[C@@H](Cc1ccc2ccccc2c1)C(N)=O [Peptide S2-Nal, KWWK-Nal] (Ac-KWWK[2Nal]-NH2; C-terminus assumed)		diminished	S1-Nal-Nal-Nal>S2-Nal-Nal=S2-Nal>S1-Nal-Nal>S1-Nal>S2-F-Nal>S1-KKK>S1>Nal-S1=S1-W>S1-WW			
Ac-KKWRKWLAKK-NH2 [Peptide S1, Ac-KKWRKWLAKK-NH2]		diminished	S1-Nal-Nal-Nal>S2-Nal-Nal=S2-Nal>S1-Nal-Nal>S1-Nal>S2-F-Nal>S1-KKK>S1>Nal-S1=S1-W>S1-WW			
CC(=O)N[C@@H](CCCCN)C(=O)N[C@@H](CCCCN)C(=O)N[C@@H](Cc1ccc2ccccc2c1)C(=O)N[C@@H](CCCNC(=N)N)C(=O)N[C@@H](CCCCN)C(=O)N[C@@H](Cc1ccc2ccccc2c1)C(=O)N[C@@H](CC(C)C)C(=O)N[C@@H](C)C(=O)N[C@@H](CCCCN)C(=O)N[C@@H](CCCCN)C(N)=O [Nal-S1, KK-Nal-RK-Nal-LAKK] (Ac-KK[2Nal]RK[2Nal]LAKK-NH2; C-terminus assumed)		diminished	S1-Nal-Nal-Nal>S2-Nal-Nal=S2-Nal>S1-Nal-Nal>S1-Nal>S2-F-Nal>S1-KKK>S1>Nal-S1=S1-W>S1-WW			
